This experiment concerns the target T1, PI3Kα H1047R (T47D cells) (Homo sapiens, UniProt P42336, H1047R).
T1 construct: endogenous in cells; host or cells: T47D cells
Description: PI3Kα cellular assay: pAKT HTRF in T47D cells after EGF stimulation. Type of experiment: cell-based. The conditions noted are these: for IC50: T47D cells (PI3Kα H1047R), pAKT S473 HTRF. Here is the method:
SKBR3 or T47D cells are seeded in DMEM containing 10% FBS at 25k cells/well into 96-well cell culture format. Cells are incubated overnight at 37° C. in a 5% CO2 incubator and the following day cell media is aspirated, adherent cells are washed 1× with room temperature PBS prior to serum-free media application. Cells are returned to 37° C. 5% CO2 incubator and incubated a further 16 hrs. Compounds are added to serum starved adherent cells with a top dose of 10,000 nM and 3× multiple dose reductions for a minimum dose of 0.5 nM diluted in DMSO. Cell/compound incubation continues for 1 hr in a 37° C., 5% CO2 incubator prior to 10 minute PIK3CA stimulation with 20 ng/ml EGF. Cells treated with 0.1% DMSO and 20 ng/mL EGF are employed as negative control, cells treated with 10 uM Alpelisib and 20 ng/mL EGF are employed as a positive control. After 10 mins, plates are removed from incubator and cells are lysed with buffer and shaking 45 minutes. […] 384 well plate is left overnight at room temperature before reading HTRF on an Envision plate reader.
ND denotes value not determined with that assay for the specified compound; • for T47D (H1047R) selectivity over SKBR3 (WT): A denotes >20-fold; B denotes 20-fold≥value>5-fold; C denotes ≤5-fold. ND denotes value not determined with that assay for the specified compound; and • for T47D pAKT lipophilic efficiency (LiPE): A denotes >4; B denotes 4≥value>2; C denotes ≤2. ND denotes value not determined with that assay for the specified compound.

Setting [1] is: 1 hr compound, 20 ng/ml EGF 10 min.
Where [2] appears, read: selectivity T47D (H1047R) over SKBR3 (WT), pAKT HTRF.
The mark [3] stands for this setting: selectivity of T47D (H1047R) over SKBR3 (WT) pAKT IC50.

T1 sequence (P42336 whole entry H1047R): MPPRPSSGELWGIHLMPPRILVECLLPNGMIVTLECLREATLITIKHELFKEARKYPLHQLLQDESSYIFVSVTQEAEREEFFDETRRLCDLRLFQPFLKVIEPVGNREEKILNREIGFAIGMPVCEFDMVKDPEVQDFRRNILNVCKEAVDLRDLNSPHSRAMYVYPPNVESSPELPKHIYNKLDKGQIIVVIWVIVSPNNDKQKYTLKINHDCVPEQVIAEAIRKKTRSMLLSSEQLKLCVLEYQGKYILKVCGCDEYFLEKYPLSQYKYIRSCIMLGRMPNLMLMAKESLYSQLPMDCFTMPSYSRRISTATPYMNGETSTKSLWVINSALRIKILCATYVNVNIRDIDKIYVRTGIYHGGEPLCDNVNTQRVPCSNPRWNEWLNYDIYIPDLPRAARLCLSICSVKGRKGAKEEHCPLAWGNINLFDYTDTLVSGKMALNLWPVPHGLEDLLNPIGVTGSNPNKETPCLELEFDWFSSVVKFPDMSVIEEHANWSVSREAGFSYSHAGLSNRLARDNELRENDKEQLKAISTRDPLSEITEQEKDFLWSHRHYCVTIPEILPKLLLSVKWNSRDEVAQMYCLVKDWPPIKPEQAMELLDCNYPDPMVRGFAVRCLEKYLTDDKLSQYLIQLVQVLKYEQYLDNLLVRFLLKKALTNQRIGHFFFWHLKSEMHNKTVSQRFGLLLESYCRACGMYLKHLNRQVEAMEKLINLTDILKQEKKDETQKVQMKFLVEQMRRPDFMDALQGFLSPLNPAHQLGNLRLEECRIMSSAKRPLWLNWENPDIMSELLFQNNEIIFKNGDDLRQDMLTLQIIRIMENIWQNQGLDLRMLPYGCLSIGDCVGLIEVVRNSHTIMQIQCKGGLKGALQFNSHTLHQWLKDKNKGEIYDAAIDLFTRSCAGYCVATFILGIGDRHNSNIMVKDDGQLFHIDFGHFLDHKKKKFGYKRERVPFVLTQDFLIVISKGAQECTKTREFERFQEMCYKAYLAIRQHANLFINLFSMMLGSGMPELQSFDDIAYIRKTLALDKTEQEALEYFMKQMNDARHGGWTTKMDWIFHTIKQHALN
T1 sequence (P27986 whole entry partner): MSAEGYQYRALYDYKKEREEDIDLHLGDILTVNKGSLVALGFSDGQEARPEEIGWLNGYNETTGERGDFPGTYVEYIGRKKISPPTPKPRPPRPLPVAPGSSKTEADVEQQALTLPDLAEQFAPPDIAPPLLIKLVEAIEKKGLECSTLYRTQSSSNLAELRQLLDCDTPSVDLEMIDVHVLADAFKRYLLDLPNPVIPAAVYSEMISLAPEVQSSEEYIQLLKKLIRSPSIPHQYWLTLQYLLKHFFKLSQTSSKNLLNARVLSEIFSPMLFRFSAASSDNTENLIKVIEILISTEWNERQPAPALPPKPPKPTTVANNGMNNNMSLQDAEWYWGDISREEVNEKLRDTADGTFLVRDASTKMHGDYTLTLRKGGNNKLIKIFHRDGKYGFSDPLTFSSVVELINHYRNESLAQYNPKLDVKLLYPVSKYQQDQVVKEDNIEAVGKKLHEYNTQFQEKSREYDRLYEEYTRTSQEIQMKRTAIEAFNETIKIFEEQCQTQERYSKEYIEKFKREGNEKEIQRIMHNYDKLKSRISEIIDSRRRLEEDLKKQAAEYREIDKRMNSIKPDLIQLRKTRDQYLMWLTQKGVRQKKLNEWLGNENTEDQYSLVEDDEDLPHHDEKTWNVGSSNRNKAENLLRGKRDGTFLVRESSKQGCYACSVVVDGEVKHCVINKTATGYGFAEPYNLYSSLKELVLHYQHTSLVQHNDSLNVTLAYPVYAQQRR

`Cc1cc([C@@H](C)Nc2ccccc2)c2nc(-c3cc(C)c4oc(=O)[nH]c4c3)cc(=O)n2c1` (single isomer, unassigned) [Compound 29] yielded a 50% inhibitory concentration (IC50) under setting [1] greater than 2 µM. In addition, the “T47D pAKT S473 HTRF IC50 (H1047R): T47D (H1047R) selectivity over SKBR3 (WT)” value under setting [2] is given as “C (C denotes ≤5-fold)”. The like results for `Cc1cc(C(C)Nc2ccccc2C(=O)O)c2nc(-c3ccncc3)cc(=O)n2c1` (single isomer, unassigned) [Compound 268] were, in that order, greater than 2 µM and “C (C denotes ≤5-fold)”. The like results for `Cc1cc(C(C)Nc2ccccc2C(=O)O)c2nc(-c3ccncc3)cc(=O)n2c1` (single isomer, unassigned) [Compound 269] were, in that order, less than 0.1 µM and “A (A denotes >20-fold)”. For the molecule `Cc1cc([C@H](C)Nc2ccccc2C(=O)O)c2nc(N3Cc4ccccc4C3)cc(=O)n2c1` (single isomer, unassigned) [Compound 393], under setting [1], the IC50 was less than 0.1 µM. In addition, under setting [2], the “T47D pAKT S473 HTRF IC50 (H1047R): T47D (H1047R) selectivity over SKBR3 (WT)” value is reported as “A (A denotes >20-fold)”.

For `Cc1cc(C(C)Nc2ccccc2C(=O)O)c2nc(-c3ccc(CN4CCN(C(=O)C5CC5)CC4)c(F)c3)cc(=O)n2c1` (single isomer, unassigned) [Compound 420], the IC50 under setting [1] is 0.1 to 0.5 µM. Further, the “T47D pAKT S473 HTRF IC50 (H1047R): T47D (H1047R) selectivity over SKBR3 (WT)” value under setting [2] is listed as “A (A denotes >20-fold)”. The like results for `Cc1cc(C(C)Nc2ccccc2C(=O)O)c2nc(-c3ccc(CN4CCN(C(=O)C5CC5)CC4)c(F)c3)cc(=O)n2c1` (single isomer, unassigned) [Compound 421] were, in that order, greater than 2 µM and “C (C denotes ≤5-fold)”. For `Cc1cc([C@@H](C)Nc2ccccc2C(=O)O)c2nc(-c3ccc(F)cc3)cc(=O)n2c1` (single isomer, unassigned) [Compound 424], in that order: less than 0.1 µM and “A (A denotes >20-fold)”. The like results for `Cc1cc([C@@H](C)Nc2ccccc2C(=O)O)c2nc(N3CC[Si](C)(C)CC3)cc(=O)n2c1` (single isomer, unassigned) [Compound 431] were, in that order, less than 0.1 µM and “A (A denotes >20-fold)”. `Cc1cc(C(C)Nc2ccccc2C(N)=O)c2nc(-c3ccncc3)cc(=O)n2c1` (single isomer, unassigned) [Compound 439] yielded an IC50 under setting [1] greater than 2 µM. Further, under setting [2], the “T47D pAKT S473 HTRF IC50 (H1047R): T47D (H1047R) selectivity over SKBR3 (WT)” value is given as “C (C denotes ≤5-fold)”. The like results for `Cc1cc([C@H](C)Nc2ccccc2C(N)=O)c2nc(-c3ccncc3)cc(=O)n2c1` (single isomer, unassigned) [Compound 440] were, in that order, 0.5 to 2 µM and “B (B denotes 20-fold≥value>5-fold)”. As to `Cc1cc([C@@H](C)Nc2ccccc2C(=O)O)c2nc(N3C[C@H](C)C[C@H](C)C3)cc(=O)n2c1` (single isomer, unassigned) [Compound 512], the IC50 under setting [1] was less than 0.1 µM. In addition, the “T47D pAKT S473 HTRF IC50 (H1047R): T47D (H1047R) selectivity over SKBR3 (WT)” value under setting [2] was “A (A denotes >20-fold)”. For `Cc1cc(C(C)Nc2ccccc2C(=O)O)c2nc(-c3ccc4c(c3)c(N)nn4C)cc(=O)n2c1` (single isomer, unassigned) [Compound 535], in that order: greater than 2 µM and “C (C denotes ≤5-fold)”.

Regarding `Cc1cc([C@H](C)Nc2ccccc2C(=O)O)c2nc(-c3ccc4c(c3)c(N)nn4C)cc(=O)n2c1` (single isomer, unassigned) [Compound 536], the concentration for half-maximal inhibition (IC50) under setting [1] was less than 0.1 µM. For the same molecule, under setting [2], the “T47D pAKT S473 HTRF IC50 (H1047R): T47D (H1047R) selectivity over SKBR3 (WT)” value is recorded as “A (A denotes >20-fold)”. In the case of `Cc1cc([C@@H](C)Nc2ccccc2C(=O)O)c2nc(N3C[C@@H]4CC(F)(F)C[C@@H]4C3)cc(=O)n2c1` (single isomer, unassigned) [Compound 582], the IC50 under setting [1] was greater than 2 µM. In addition, the “T47D pAKT S473 HTRF IC50 (H1047R): T47D (H1047R) selectivity over SKBR3 (WT)” value under setting [2] is “C (C denotes ≤5-fold)”.

For the molecule `Cc1cc([C@H](C)Nc2ccccc2C(=O)O)c2nc(N3C[C@@H]4CC(F)(F)C[C@@H]4C3)cc(=O)n2c1` (single isomer, unassigned) [Compound 583], under setting [1], the IC50 is less than 0.1 µM. The “T47D pAKT S473 HTRF IC50 (H1047R): T47D (H1047R) selectivity over SKBR3 (WT)” value under setting [2] was “A (A denotes >20-fold)”. For the molecule `Cc1cc([C@@H](C)Nc2ccccc2C(=O)O)c2nc(-c3ccc4sc(=O)[nH]c4c3)cc(=O)n2c1` (single isomer, unassigned) [Compound 593], the IC50 under setting [1] is less than 0.1 µM. The “T47D pAKT S473 HTRF IC50 (H1047R): T47D (H1047R) selectivity over SKBR3 (WT)” value under setting [2] is on record as “A (A denotes >20-fold)”.

`Cc1cc([C@H](C)Nc2ccccc2S(N)(=O)=O)c2nc(N3Cc4ccccc4C3)cc(=O)n2c1` (single isomer, unassigned) [Compound 606]: the IC50 under setting [1] was greater than 2 µM. Also, the “T47D pAKT S473 HTRF IC50 (H1047R): T47D (H1047R) selectivity over SKBR3 (WT)” value under setting [2] is “C (C denotes ≤5-fold)”. Take `Cc1cc([C@@H](C)Nc2ccccc2C(N)=O)c2nc(N3Cc4ccccc4C3)cc(=O)n2c1` (single isomer, unassigned) [Compound 620]: the IC50 under setting [1] was less than 0.1 µM. Moreover, the “T47D pAKT S473 HTRF IC50 (H1047R): T47D (H1047R) selectivity over SKBR3 (WT)” value under setting [2] was “A (A denotes >20-fold)”.

For `Cc1cc([C@@H](C)Nc2ccccc2C(=O)O)c2nc(C3Cc4ccccc4[C@@H]3C)cc(=O)n2c1` (single isomer, unassigned) [Compound 652], the “T47D pAKT S473 HTRF IC50 (H1047R): T47D (H1047R) selectivity over SKBR3 (WT)” value under setting [3] is listed as “A (A denotes >20-fold)”. Where the note is “EGF stimulation”, `Cc1cc([C@@H](C)Nc2ccccc2C(=O)O)c2nc(N3Cc4ccccc4[C@@H]3C)cc(=O)n2c1` (single isomer, unassigned) [Compound 652] came in with an IC50 of less than 0.1 µM.

For `Cc1cc([C@@H](C)Nc2ccccc2C(=O)O)c2nc(-c3cnc4c(c3)c(C)nn4C)cc(=O)n2c1` (single isomer, unassigned) [Compound 696], for the setting “EGF stimulation”, the IC50 was less than 0.1 µM. Under setting [3], the “T47D pAKT S473 HTRF IC50 (H1047R): T47D (H1047R) selectivity over SKBR3 (WT)” value is reported as “A (A denotes >20-fold)”. For `Cc1cc([C@@H](C)Nc2ccccc2C(=O)O)c2nc(N3C[C@@H](C)C(F)(F)[C@@H](C)C3)cc(=O)n2c1` (single isomer, unassigned) [Compound 711], in that order: less than 0.1 µM and “A (A denotes >20-fold)”. For `Cc1cc([C@@H](C)Nc2ccccc2S(N)(=O)=O)c2nc(N3C[C@@H](C)O[C@@H](C)C3)cc(=O)n2c1` (single isomer, unassigned) [Compound 730], in that order: less than 0.1 µM and “A (A denotes >20-fold)”. For `Cc1cc([C@@H](C)Nc2ccccc2C(=O)O)c2nc(-c3ccc4c(c3)c(C)nn4C)cc(=O)n2c1` (single isomer, unassigned) [Compound 739], in that order: greater than 2 µM and “C (C denotes ≤5-fold)”. Molecule `Cc1cc([C@H](C)Nc2ccccc2C(=O)O)c2nc(-c3ccc4c(c3)c(C)nn4C)cc(=O)n2c1` (single isomer, unassigned) [Compound 740] yielded an IC50 (EGF stimulation) of less than 0.1 µM. Under setting [3], the “T47D pAKT S473 HTRF IC50 (H1047R): T47D (H1047R) selectivity over SKBR3 (WT)” value is on record as “A (A denotes >20-fold)”. The like results for `Cc1cc([C@@H](C)Nc2ccccc2C(=O)O)c2nc(-c3cnc4c(c3)c(C)c(C)n4C)c(C)c(=O)n2c1` (single isomer, unassigned) [Compound 804] were, in that order, less than 0.1 µM and “A (A denotes >20-fold)”.

In turn, `Cc1cc([C@H](C)Nc2ccccc2-c2ccnnc2)c2nc(N3Cc4ccccc4C3)c(C)c(=O)n2c1` (single isomer, unassigned) [Compound 848] yielded a half-maximal inhibitory concentration (IC50) (EGF stimulation) of less than 0.1 µM. Also, under setting [3], the “T47D pAKT S473 HTRF IC50 (H1047R): T47D (H1047R) selectivity over SKBR3 (WT)” value is reported as “A (A denotes >20-fold)”. The molecule `Cc1cc([C@@H](C)Nc2ccccc2S(N)(=O)=O)c2nc(N3Cc4ccccc4C3)c(C)c(=O)n2c1` (single isomer, unassigned) [Compound 856] displayed a half-inhibitory concentration (IC50) (EGF stimulation) of less than 0.1 µM. Moreover, the “T47D pAKT S473 HTRF IC50 (H1047R): T47D (H1047R) selectivity over SKBR3 (WT)” value under setting [3] was “A (A denotes >20-fold)”. The like results for `Cc1cc([C@@H](C)Nc2ccccc2C(=O)O)c2nc(-c3ccc4c(c3)c(C)nn4C3CC3)c(C)c(=O)n2c1` (single isomer, unassigned) [Compound 892] were, in that order, less than 0.1 µM and “A (A denotes >20-fold)”. `Cc1cc([C@@H](C)Nc2ccccc2C(=O)O)c2nc(-c3ccc4c(c3)c(C)cn4C)c(C)c(=O)n2c1` (single isomer, unassigned) [Compound 902] displayed an IC50 (EGF stimulation) of less than 0.1 µM. Under setting [3], the “T47D pAKT S473 HTRF IC50 (H1047R): T47D (H1047R) selectivity over SKBR3 (WT)” value is on record as “A (A denotes >20-fold)”. For `Cc1cc([C@@H](C)Nc2ccccc2C(=O)O)c2nc(-c3ccc(F)c(C#N)c3)c(C)c(=O)n2c1` (single isomer, unassigned) [Compound 947], in that order: less than 0.1 µM and “A (A denotes >20-fold)”.

For orientation: IC50 means the midpoint of a concentration-inhibition curve. A high value points to weaker potency in that assay.

For the origin of these results see patent US20260132129A1 (Genesis Therapeutics, Inc., priority 2022, published 2026).
